Assay results reported in ChEMBL document CHEMBL1130803, “Anti-HIV pronucleotides: decomposition pathways and correlation with biological activities” (Bioorg Med Chem Lett, 1998).

Legend:
[1] = tested on: CCRF-CEM; assay: Compound was evaluated for anti-HIV activity against thymidine kinase deficient CEM cell line infected with HIV-1; type: functional, cell-based; conditions: Homo sapiens
[2] = tested on: CCRF-CEM; assay: Compound was evaluated for cytotoxicity against thymidine kinase deficient CEM cell line infected with HIV-1; type: functional; conditions: Homo sapiens
[3] = Half-life at initial concentration of 5*10e-5 M in CEM cell extract; type: ADME, CCRF-CEM; conditions: human

SMILES	EC50 [1] [µM]	CC50 [2] [µM]	half-life [3] [h]
Cc1cn([C@H]2C[C@H](N=[N+]=[N-])[C@@H](CO)O2)c(=O)[nH]c1=O [ZIDOVUDINE]	> 100	> 100	
COC(=O)CCNP(=O)(OCC1OC(n2cc(C)c(=O)[nH]c2=O)CC1N=[N+]=[N-])Oc1ccccc1 (centres undefined)	> 100	> 100	> 8
CC(=O)OCCNP(=O)(OCC1OC(n2cc(C)c(=O)[nH]c2=O)CC1N=[N+]=[N-])Oc1ccccc1 (centres undefined)	> 10	> 10	1.5
COC(=O)[C@H](C)NP(=O)(OC[C@H]1O[C@@H](n2cc(C)c(=O)[nH]c2=O)C[C@@H]1N=[N+]=[N-])Oc1ccccc1 (some centres undefined)	4.1	97	2.5
COC(=O)CNP(=O)(OCC1OC(n2cc(C)c(=O)[nH]c2=O)CC1N=[N+]=[N-])Oc1ccccc1 (centres undefined)	63	> 100	21
